PubChem BioAssay AID2060484 (Molecular Pharmacology Branch, DTP, NCI, 2025)

Tested on: SUM149PT spheroids with HUVEC/MSC, viability
Experiment: Anticancer human tumor SUM149PT cell line growth inhibition [GQUAD];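 further: spheroids exposed to drugs for seven days before readout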;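 on viability, T/C: percent viability relative to DMSO vehicle control taken as 100%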
Conditions: for IC50: curve of first compound; for viability, T/C: stronger effect = lower value
Text: DNA G-quadruplex Stabilizer Agents in Combinations in Complex Spheroids
A high-throughput screen of multi-cell type tumor spheroids was designed to identify active combinations of DNA G-quadruplex stabilizer agents and targeted small molecules. Complex spheroids include a stromal component modeled by human endothelial cells (HUVEC) and fibroblasts modeled by human mesenchymal stem cells (MSCs). The concentration ranges selected for each drug and investigational agent were based upon clinically achievable concentrations if the clinical Cmax of the agent was known.
Compounds. The drugs and investigational agents: pidnarulex (CX-5461; NSC782164), APTO-253 (NSC789042), BRACO-19 (NSC847499), peposertib (NSC802822), ceralasertib (NSC780249), elimusertib (NSC800525), camonsertib (NSC841442), AZD-1390 (NSC803789), olaparib (NSC753686), talazoparib (NSC767125), ART-558 (NSC835418), sotorasib (NSC818433), MRTX-1133 (NSC836407), SN-38 (NSC673596), topotecan (NSC609699), etoposide (NSC141540), doxorubicin (NSC123127), gemcitabine (NSC613327), 5-fluorouracil (NSC19893), paclitaxel (NSC125973), vemurafenib (NSC761431), panobinostat (NSC761190), R-306465 (JNJ-16241199; NSC773264), adavosertib (NSC754352), TP-3654 (NSC805149), carboplatin (NSC241240), KSQ-4279 (NSC840948), and staurosporine (NSC755774) were obtained from the National Cancer Institute (NCI) Developmental Therapeutics Program Chemical Repository (34). The FDA-approved anticancer drug set is available from the NCI Developmental Therapeutics Program. […] The stock solutions were prepared in dimethyl sulfoxide (DMSO, Sigma-Aldrich, St. Louis, MO, cat. D2650) at 800-fold the tested concentration and stored at -70 degrees C prior to their use. All drugs and investigational agents were tested over a range starting from a high concentration at or near the clinical Cmax and decreasing in half-log increments. If the clinical Cmax for an agent had not been determined, the highest concentration tested was 10 microM.
2.3 Cell Culture. All cells were maintained in an incubator at 37 degrees C and 5% CO2 with 95% humidity. The PDC lines were cultured according to standard operating procedures established by the NCI PDMR. All PDCs were thawed and cultured in Matrigel-coated flasks prepared with a working solution of 1X Ham's F-12 nutrient mix, without supplementation (Invitrogen, cat. 11765054), 100 U/mL penicillin-streptomycin (Invitrogen, cat. 15140122), and 2.5% Matrigel (Corning Inc., cat. 354248) for the first three passages. The 857933-349-R-J2-PDC line was cultured in 6C/Colon 1B media, which includes advanced DMEM/F-12 (Thermo Fisher Scientific, cat. 12634028), 10 mM HEPES (Thermo Fisher Scientific, cat. 15630080), 1X GlutaMAX supplement (Thermo Fisher Scientific, cat. 35050061), 0.1 mg/mL primocin (InvivoGen, cat. ant-pm-2), 10% defined fetal bovine serum, heat inactivated (HyClone Laboratories Inc., cat. SH30070.03HI), 50% L-WRN conditioned media (ATCC, cat. CRL-3276), 1.25 mM N-Acetyl-L-cysteine (Sigma-Aldrich, cat. A9165), 10 mM nicotinamide (Sigma-Aldrich, cat. N0636), 1X B-27 supplement (Thermo Fisher Scientific, cat. 17504044), 1X N-2 supplement (Thermo Fisher Scientific, cat. 17502048), 10 microM Y-27632 dihydrochloride (Tocris Bioscience, cat. 1254), and 50 ng/mL human EGF recombinant protein (Thermo Fisher Scientific, cat. PHG0311). The 485176-168-R4-J1-PDC line was cultured in Panc media, which includes all 6C/Colon 1B media components plus 100 ng/mL human FGF-10 (Thermo Fisher Scientific, cat. 100-26), 500 nM SB-431542 (Selleckchem, cat. S1067), and gastrin (Tocris, cat. 3006).
[…]

[1] = second compound 0.0316 µM, first compound 0.0316 µM
[2] = second compound 0.0316 µM, first compound 0.1 µM
[3] = second compound 0.0316 µM, first compound 0.316 µM
[4] = second compound 0.0316 µM, first compound 1 µM
[5] = second compound 0.0316 µM, first compound 3.16 µM
[6] = second compound 0.0316 µM, first compound 10 µM
[7] = second compound 0.1 µM, first compound 0.0316 µM
[8] = second compound 0.1 µM, first compound 0.1 µM
[9] = second compound 0.1 µM, first compound 0.316 µM
[10] = second compound 0.1 µM, first compound 1 µM
[11] = second compound 0.1 µM, first compound 3.16 µM
[12] = second compound 0.1 µM, first compound 10 µM
[13] = second compound 0.316 µM, first compound 0.0316 µM
[14] = second compound 0.316 µM, first compound 0.1 µM
[15] = second compound 0.316 µM, first compound 0.316 µM
[16] = second compound 0.316 µM, first compound 1 µM
[17] = second compound 0.316 µM, first compound 3.16 µM
[18] = second compound 0.316 µM, first compound 10 µM
[19] = second compound 1 µM, first compound 0.0316 µM
[20] = second compound 1 µM, first compound 0.1 µM
[21] = second compound 1 µM, first compound 0.316 µM
[22] = second compound 1 µM, first compound 1 µM
[23] = second compound 1 µM, first compound 3.16 µM
[24] = second compound 1 µM, first compound 10 µM
[25] = second compound 3.16 µM, first compound 0.0316 µM
[26] = second compound 3.16 µM, first compound 0.1 µM
[27] = second compound 3.16 µM, first compound 0.316 µM
[28] = second compound 3.16 µM, first compound 1 µM
[29] = second compound 3.16 µM, first compound 3.16 µM
[30] = second compound 3.16 µM, first compound 10 µM
[31] = second compound 10 µM, first compound 0.0316 µM
[32] = second compound 10 µM, first compound 0.1 µM
[33] = second compound 10 µM, first compound 0.316 µM
[34] = second compound 10 µM, first compound 1 µM
[35] = second compound 10 µM, first compound 3.16 µM
[36] = second compound 10 µM, first compound 10 µM

Compound `Nc1ccn(C2OC(CO)C(O)C2(F)F)c(=O)n1` (centres undefined) + Cc1[nH]c2ccc(F)cc2c1-c1nc2c3cccnc3c3ncccc3c2[nH]1 has an IC50 (second compound 0.0316 µM) of 75.8 nM, an IC50 (second compound 0.1 µM) of 83.3 nM and an IC50 (second compound 0.316 µM) of 64.3 nM. It also gave an IC50 (second compound 1 µM) of 76.3 nM, an IC50 (second compound 3.16 µM) of 68.4 nM and an IC50 (second compound 10 µM) of 53.5 nM. For the same compound, the viability, T/C [1] was 82.8%, the viability, T/C [2] was 39.7% and the viability, T/C [3] was 22.1%. The viability, T/C [4] was 20.7%, the viability, T/C [5] was 17% and the viability, T/C [6] was 14.1%. For the same compound, the viability, T/C [7] was 69%, the viability, T/C [8] was 46.4% and the viability, T/C [9] was 19%. The viability, T/C [10] was 17.5%, the viability, T/C [11] was 16% and the viability, T/C [12] was 13.9%. It also gave a viability, T/C [13] of 70.4%, a viability, T/C [14] of 37.5% and a viability, T/C [15] of 21.6%. It also gave a viability, T/C [16] of 18.7%, a viability, T/C [17] of 17.5% and a viability, T/C [18] of 12%. The viability, T/C [19] was 77.1%, the viability, T/C [20] was 41.1% and the viability, T/C [21] was 24.7%. It also gave a viability, T/C [22] of 21%, a viability, T/C [23] of 17.1% and a viability, T/C [24] of 12.1%. It also gave a viability, T/C [25] of 75.8%, a viability, T/C [26] of 37.5% and a viability, T/C [27] of 20.8%. The viability, T/C [28] was 18.7%, the viability, T/C [29] was 15.3% and the viability, T/C [30] was 12%. For the same compound, the viability, T/C [31] was 62.8%, the viability, T/C [32] was 35.3% and the viability, T/C [33] was 19.9%. The viability, T/C [34] was 22.1%, the viability, T/C [35] was 15.6% and the viability, T/C [36] was 11.6%.
Work on `O=C(c1cc(Cc2n[nH]c(=O)c3ccccc23)ccc1F)N1CCN(C(=O)C2CC2)CC1` + Cc1[nH]c2ccc(F)cc2c1-c1nc2c3cccnc3c3ncccc3c2[nH]1 yielded an IC50 (second compound 0.0316 µM) of over 10000 nM, an IC50 (second compound 0.1 µM) of over 10000 nM and an IC50 (second compound 0.316 µM) of over 10000 nM. For the same compound, the IC50 (second compound 1 µM) was over 10000 nM, the IC50 (second compound 3.16 µM) was over 10000 nM and the IC50 (second compound 10 µM) was over 10000 nM. It also gave a viability, T/C [1] of 105%, a viability, T/C [2] of 97.4% and a viability, T/C [3] of 98.5%. It also gave a viability, T/C [4] of 103%, a viability, T/C [5] of 93.2% and a viability, T/C [6] of 80.3%. The viability, T/C [7] was 102%, the viability, T/C [8] was 96.8% and the viability, T/C [9] was 96.5%. It also gave a viability, T/C [10] of 99.8%, a viability, T/C [11] of 108% and a viability, T/C [12] of 76.9%. For the same compound, the viability, T/C [13] was 93.8%, the viability, T/C [14] was 95.1% and the viability, T/C [15] was 103%. For the same compound, the viability, T/C [16] was 111%, the viability, T/C [17] was 96.6% and the viability, T/C [18] was 74.8%. It also gave a viability, T/C [19] of 99.9%, a viability, T/C [20] of 97.6% and a viability, T/C [21] of 108%. The viability, T/C [22] was 100%, the viability, T/C [23] was 100% and the viability, T/C [24] was 69.2%. For the same compound, the viability, T/C [25] was 89.9%, the viability, T/C [26] was 96.4% and the viability, T/C [27] was 98.4%. For the same compound, the viability, T/C [28] was 99.6%, the viability, T/C [29] was 95.8% and the viability, T/C [30] was 75.2%. The viability, T/C [31] was 86.8%, the viability, T/C [32] was 86.6% and the viability, T/C [33] was 82.4%. The viability, T/C [34] was 101%, the viability, T/C [35] was 102% and the viability, T/C [36] was 73.5%.
